Patent publication US20060121498A1, “Enzymes involved in apoptosis” (EiRx Therapeutics Limited, priority 2003, published 2006)
Like-named read-outs stand apart in the source and are kept apart here.

What was measured:
[1] = cited from earlier work
neutrophils = assay: Neutrophil apoptosis, sub G1 analysis (DNA fragmentation); type: cell-based, human
Description: Neutrophils are isolated from the blood as described in WO 02/04657 and resuspended at a concentration of 2×10^6/ml. Five hundred microlitres are pipetted into wells of a 24 well plate and incubated in the presence or absence of survival factors.
After this incubation, the neutrophils are carefully resuspended by gentle agitation and the total contents of the well are placed into an eppendorf and centrifuged @2800 rpm for 2 min @ RT in a minifuge. The cell pellet is carefully resuspended in 300 μl of ice cold hypotonic fluorochrome solution (50 μg/ml Propidium Iodide, 0.1% Sodium Citrate and 0.1% Triton X-100) and placed in a fridge for 24 h @ 4° C.
Prepared samples are analysed with a FacsCalibre flow cytometer (Becton Dickinson) using double discrimination to ensure single cell suspension with Log Forward and Side Scatter Parameter acquisition.
Neutrophils are seeded at 2×10^6/ml in a 24 well plate in full culture medium (1 ml/well). A PI3K inhibitor (Ly94002) is added to the neutrophils to a final concentration of 20 μM prior to the addition of GM-CSF (50 units/ml). Control wells received either no GM-CSF or GM-CSF (50 units/ml) in the absence of inhibitor. Neutrophils are cultured for 18 h at 37° C. prior to harvest and prepared for sub G1 analysis, as previously described.
Neutrophils are seeded at 2×10^6/ml in a 24 well plate in full culture medium (1 ml/well). […]

MIAPaCa-2 and HuTu80 = settings: cited from earlier work
CAL27 tumour cell line = settings: relatively low basal DPD activity; cited from earlier work
MIAPaCa-2 cells = settings: nude mouse, subcutaneous MIAPaCa-2; cited from earlier work
Walker 256 tumour = settings: diet of 5.5% GLA; cited from earlier work
bone marrow derived DC = settings: pretreatment; cited from earlier work
[2] = tested on: MCF-7 human breast cancer cells; settings: inhibition of FAS with cerulenin; cited from earlier work
[3] = tested on: redox related genes such as heme oxygenase 1 and Glutathione reductase; settings: cited from earlier work
TF-1 cells [4] = assay: Overexpression of identified genes in TF1 cells, viability by FSc/SSc; type: cell-based, human; settings: 96 h post transduction, versus control plasmid Pms*H
From the text: To assess the apoptotic activity of the apoptosis-associated genes identified herein, TF1 cells are transduced with either a plasmid expressing the gene of interest coding sequence or a control plasmid (PMs*H). The gene coding sequence encoding the amino acid sequence set out in Table 1 is cloned into the retroviral expression vector pMSCV (Clontech). Plasmids are transfected into the retroviral packaging cell line Phoenix 293 (Standford) using the CalPhos Mammalian Transfection Kit (Clontech) according to the manufacturer's instructions. Retrovirus is harvested 72 hours later. Retrovirus is transduced to TF 1 cells by incubation for 18 hours. Media is changed and cells are incubated for an additional 96 hours.
The cells are examined for viability after 96 hours using forward scatter/side scatter parameters.

TF-1 cells [5] = assay: TF-1 apoptosis by sub G1 analysis; type: cell-based, human; settings: 48 h with GM-CSF (approximately 55% in its absence)
Description: TF-1 cells are cultured for 48 h in the presence or absence of GM-CSF (2 ng/ml). Cells are then harvested by centrifugation (1000 rpm, for 10 min) and washed in PBS. The pellet is resuspended in PBS (2×10^5 cells/ml) and 1 ml is then added in a dropwise fashion to ice cold 70% EtoH whilst continuously vortexing. Cells are then permeabilized by incubating at −20° C. for 24 h. To stain DNA, cells are centrifuged and washed in PBS. Cells are resuspended in 500 μl Propidium Iodide Buffer (Propidium iodide (50 μg/ml; Sigma); RNAse A (50 μg/ml; Sigma) in Phosphate Buffered Saline (PBS; Sigma) for 15 min in the dark before flow cytometric analysis using a FacsCalibre (Becton Dickinson). Analysis is performed using Cell Quest software.

TF-1 cells [6] = assay: TF-1 apoptosis by light scatter analysis (live gate); type: cell-based, human; settings: 48 h with GM-CSF 2 ng/ml (35% upon factor withdrawal)
Description: Light Scatter Analysis takes advantage of the fact that by using the laser beam of a flow cytometer one can determine the size (Forward Scatter) and granularity (Side Scatter) of a cell. The morphological changes associated with apoptosis, such as decreased size (shrinkage) and granularity affect these parameters. As a consequence, cells undergoing apoptosis will move to the left and slightly down, from the parameters of a healthy population.
TF-1 cells are plated into 24 well plates (2×10^5/ml) and are cultured for 48 h in the presence or absence of GM-CSF (2 ng/ml). Cells are then harvested by centrifugation (1000 rpm, for 10 min) and washed in PBS. The pellet is resuspended in PBS (2×10^5 cells/ml) and acquired by a FacsCalibre. Forward and Side scatter parameters are assessed using Cell Quest software.
Culturing TF-1 cells in the absence of GM-CSF induces cell death. This death induces morphological changes in the Forward and Side Scatter parameters that is detected by FacsCalibre analysis. Consequently, by observing the percentage of cells in the live gate (which is an arbitrary region pre-set on a healthy population of TF-1 cells grown in the presence of GM-CSF (2 ng/ml)), one observes that there is a decrease in the percentage of cells with these light scatter parameters, when cytokine is withdrawn.

[7] = relatively high basal DPD activity

O=c1[nH]cc(F)c(=O)[nH]1 [5FU, 5-fluorouracil]
patients suffering from grade IV neutropenia ([1]; patients with a decreased DPD activity): 55%
patients suffering from grade IV neutropenia ([1]; patients with a normal DPD activity): 13%

CCCCCCCCCCCCCCCCCCOC(=O)OC1C(O)C(O)C(CO)C(O)C1OC (stereo not shown) [AKT inhibitor]
GM-CSF mediated survival, sub G1 analysis (neutrophils; inhibitor 20 μM plus GM-CSF 50 units/ml, 18 h): survival is abrogated

Oc1cc(O)c(Cl)cn1 [CDHP, 5-chloro-2,4-dihydroxypyridine]
molar ratio (CDHP:5-FU) at maximum effect (MIAPaCa-2 and HuTu80; enhancement of 5-FU cytotoxicity): more than 0.2
cell proliferation, CDHP by itself (MIAPaCa-2 and HuTu80; in vitro study): did not influence cell proliferation by itself
5-FU cytotoxicity (MIAPaCa-2 and HuTu80; [7]): enhanced 5-FU cytotoxicity in a concentration-dependent manner
5-fluorouracil (5-FU) degradation (MIAPaCa-2 and HuTu80; [7]): inhibit 5-fluorouracil (5-FU) degradation
5-FU cytotoxicity (CAL27 tumour cell line): did not have any effect on 5-FU cytotoxicity

O=c1[nH]c(=O)n(C2CCCO2)cc1F (stereo not shown) [FT, tegafur]
tumour growth inhibition (MIAPaCa-2 cells): 21+/−25%

CCCCC/C=C\C/C=C\C/C=C\CCCCC(=O)O [GLA, Gamma-linolenic acid]
decrease in CTP1 activity (Walker 256 tumour): 62%
reduction of tumour growth (Walker 256 tumour): 45%

N[C@H]1CONC1=O [L-cycloserine]
endogenous ceramide levels and tumor-induced DC apoptosis (bone marrow derived DC): reduced endogenous ceramide levels and protected DC from tumor-induced apoptosis

CCCCCCCCCCCCCC(=O)O[C@@H]1[C@@H](C)[C@@]2(O)[C@@H](C=C(CO)C[C@]3(O)C(=O)C(C)=C[C@@H]23)[C@@H]2C(C)(C)[C@]12OC(C)=O [PMA]
endogenous ceramide levels and tumor-induced DC apoptosis (bone marrow derived DC): reduced endogenous ceramide levels and protected DC from tumor-induced apoptosis

C/C=C/C/C=C/CCC(=O)[C@H]1O[C@H]1C(N)=O [cerulenin]
CPT-1 and fatty acid oxidation [2]: causes carnitine palmitoyltransferase-1 (CPT-1) inhibition and fatty acid oxidation inhibition

CCOC(=O)[C@@]1(CCCCCCOc2ccc(Cl)cc2)CO1 [etomoxir]
expression of redox related genes [3]: induces up regulation of redox related genes

ELAFIN
apoptosis/viability by FSc/SSc parameters (TF-1 cells [4]): induces apoptosis in TF-1 cells

GM-CSF: 22 kDa proinflammatory cytokine released by several activated cell types including monocytes and T cells
cells with sub-G1 profiles (TF-1 cells [5]): 5%
percentage of cells with a sub G1 profile (neutrophils; neutrophils cultured overnight with GM-CSF (65% without)): 9.7%
percentage of cells in the live gate (TF-1 cells [6]): 77%
